Measured values reported in patent US11382935B2, “Composition for improving cognitive ability and preventing or treating dementia and attention deficit hyperactivity disorder, comprising Galla rhois extract and fraxin as active ingredients” (priority 2018, dated 2022).

Legend:
[1] = test system: Human umbilical vein endothelial cells (HUVECs); assay: MTT assay of cell damage in hydrogen peroxide-treated HUVECs (cell regeneration effect); type: cell-based; settings: HUVECs treated with antioxidant, then hydrogen peroxide
Experimental: (§1) Human umbilical vein endothelial cells (HUVECs) were treated with each of the 7 types of antioxidants A1-A7, and then an oxidant, hydrogen peroxide, was administered to analyze the degree of cell damage by an MTT assay, and then the activity of superoxide dismutase and catalase was measured.

HUVECs [2] = assay: Production of reactive oxygen species (ROS), DCF fluorescence, in H2O2-treated HUVECs; type: cell-based, Human; settings: for reduction of the H2O2-induced increase in ROS level: H2O2-treated HUVECs, DCF fluorescence, H2O2 increases ROS by 55%; for ROS scavenging effect: HUVECs treated with antioxidant, then hydrogen peroxide
[3] = test system: Superoxide dismutase (SOD); assay: Superoxide dismutase (SOD) assay in H2O2-treated HUVECs; type: cell-based, Human; settings: treated before H2O2 treatment
Experimental: as §1

HUVECs [4] = assay: Lipid peroxidation (LPO) assay, MDA amount, in H2O2-exposed cells; type: cell-based, Human; settings: cells exposed to H2O2
[5] = DPPH assay of free radical-scavenging activity; type: biochemical; settings: absorbance at 517 nm for 10 minutes
Experimental: In the present invention, the experiment was carried out with fraxin having a concentration of 0.5 mM, and this concentration is a result of performing an experiment of the free radical-scavenging activity of fraxin using a DPPH assay. A DPPH solution was treated with various concentrations of fraxin (0.02, 0.1 and 0.5 mM), and a change in absorbance was monitored at 517 nm for 10 minutes. The free radical scavenging activity was approximately 10%, 18% or 50% at the fraxin concentration of 0.02, 0.1 or 0.5 mM, respectively, and 0.5 mM was selected for subsequent experiment.

[6] = test system: Human umbilical vein endothelial cells (HUVECs); assay: Antioxidant activity screening; type: cell-based; settings: screening of components with known antioxidant activity
Experimental: Compounds used in the antioxidant activity screening of the present invention are A1 to A7 below:
as §1

Row | SOD activity [3] | Structure (SMILES) | cell regeneration effect [1] | reduction of the H2O2-induced increase in ROS level (HUVECs [2]) [%] | ROS scavenging effect (HUVECs [2]) | reduction of the H2O2-induced increase in MDA amount (LPO) (HUVECs [4]) | free radical scavenging activity ([5]; 0.02 mM) | free radical scavenging activity ([5]; 0.1 mM) [%] | free radical scavenging activity ([5]; 0.5 mM) [%] | antioxidant activity [6]
1 | increase | COc1cc2ccc(=O)oc2c(O[C@@H]2O[C@H](CO)[C@@H](O)[C@H](O)[C@H]2O)c1O [A3, fraxin] | high | 39 | poor | greatly reduced | approximately 10% | ~18 | ~50 | highest activity
2 | – | COC(=O)c1cc(O)c(O)c(O)c1 [A4, methyl gallate] | high | 24 | high | greatly reduced | – | – | – | –
3 | – | C[C@@H]1O[C@@H](O[C@@H]2[C@@H](O)[C@H](OCCc3ccc(O)c(O)c3)O[C@H](CO)[C@H]2OC(=O)/C=C/c2ccc(O)c(O)c2)[C@H](O)[C@H](O)[C@H]1O [A6, Acteoside] | did not show | – | did not show | – | – | – | – | –
4 | – | O=C(CC(O)(CC(=O)OCc1ccc(O[C@@H]2O[C@H](CO)[C@@H](O)[C@H](O)[C@H]2O)cc1)C(=O)O)OCc1ccc(O[C@@H]2O[C@H](CO)[C@@H](O)[C@H](O)[C@H]2O)cc1 [A7, 1,3-bis[4-(3-D-glucopyranosyl)benzyl]citrate] | did not show | – | did not show | – | – | – | – | –
5 | – | O=C(O)c1cc(O)c(O)c(O)c1 [gallic acid] | – | – | – | – | – | – | – | highest activity
